Reference: ChEMBL document CHEMBL1146970, “Potent blockers of the monocarboxylate transporter MCT1: novel immunomodulatory compounds” (Bioorg Med Chem Lett, 2006)
≈ marks a conversion by molar mass, not a printed value.

What was measured:
physchem [1] = conditions: octanol/water
physchem [2] = conditions: aqueous
[3] = buffer

Row | Structure (SMILES) | logD (physchem [1]) | solubility (physchem [2]) [µg/mL] | solubility [3] [µg/mL]
1 | CC(C)Cn1c(=O)n(C)c(=O)c2c(C(=O)N3CC[C@@H](O)C3)c(Cc3cccc4ncccc34)sc21 | 2 | – | –
2 | CC(C)Cn1c(=O)n(C)c(=O)c2c(SCCCO)c(Cc3ccccc3C(F)(F)F)sc21 | 4.1 | – | –
3 | CC(C)Cn1c(=O)n(C)c(=O)c2c(C(=O)N3CC[C@@H](O)C3)c(Cc3c[nH]c4ncccc34)sc21 | 1.7 | – | –
4 | Cc1nc(Cl)c(Cl)n1Cc1sc2c(c1C(=O)N1CC[C@@H](O)C1)c(=O)n(C)c(=O)n2CC(C)C | 1.6 | – | –
5 | CC(C)Cn1c(=O)n(C)c(=O)c2c(SC3CCC3)c(Cc3ccccc3C(F)(F)F)sc21 | > 3.5 | – | –
6 | CC(C)Cn1c(=O)n(C)c(=O)c2c(C(=O)N3CC[C@@H](O)C3)c(Cc3ccnc4ccccc34)sc21 | 1.7 | 520 (≈ 1060 µM) | –
7 | CC(C)Cn1c(=O)n(C)c(=O)c2c(C(=O)N3CC[C@@H](O)C3)c(Cc3c[nH]c4ccccc34)sc21 | 2.4 | – | –
8 | CC(C)Cn1c(=O)n(C)c(=O)c2c(C(=O)N3CC[C@@H](O)C3)c(Cc3cncc4ccccc34)sc21 | 1.7 | – | –
9 | CC(C)Cn1c(=O)n(C)c(=O)c2c(C(=O)N3CC[C@@H](O)C3)c(Cc3ccccc3C(F)(F)F)sc21 | 2.7 | – | –
10 | CC(C)Cc1nn(C)c(=O)c2c(SCCCO)n(Cc3cccc4ccccc34)cc12 | 4.8 | < 1 | –
11 | CC(C)Cn1c(=O)n(C)c(=O)c2c(C(=O)N3CCCC3)c(Cc3ccccc3C(F)(F)F)sc21 | 3.8 | – | –
12 | CNc1nc2ccccc2n1Cc1sc2c(c1C(=O)N1CC[C@@H](O)C1)c(=O)n(C)c(=O)n2CC(C)C | 1.6 | – | –
13 | CC(C)Cn1c(=O)n(C)c(=O)c2c(C(=O)N3CC(C)(O)C3)c(Cc3ccccc3C(F)(F)F)sc21 | 3.2 | – | –
14 | CC(C)Cn1c(=O)n(C)c(=O)c2c(SCCCO)n(Cc3cccc4ccccc34)cc21 | 4.4 | – | 80 (≈ 177 µM)
15 | CC(C)Cn1c(=O)n(C)c(=O)c2c(S[C@@H]3CCC[C@H]3O)c(Cc3ccccc3C(F)(F)F)sc21 (racemic) | 4.2 | – | –
16 | CC(C)Cn1c(=O)n(C)c(=O)c2c(SCC(O)CO)c(Cc3ccccc3C(F)(F)F)sc21 (racemic) | > 4.5 | – | –
17 | CC(C)Cn1c(=O)n(C)c(=O)c2c(S[C@@H]3CC[C@H](O)C3)c(Cc3ccccc3C(F)(F)F)sc21 (racemic) | 4.4 | – | –
18 | CC(C)Cn1c(=O)n(C)c(=O)c2c(S(=O)(=O)N3CC[C@@H](O)C3)c(Cc3ccccc3C(F)(F)F)sc21 (racemic) | 3.3 | – | –
